Measurements reported in patent publication US20060269601A1, “Oral modified release formulations containing 8-prenylnaringenin for continuous estrogen support” (priority 2005, published 2006).

What was measured:
[1] = Clinical Phase Ia study: drug serum levels after single oral dose of 8-prenylnaringenin; type: in vivo, human (postmenopausal women)
Source text: The pharmacokinetic profile of 8-prenylnaringenin is characterized by a complete oral absorption, a low degree of metabolization (less than 60% of dose) and a high pre-systemic elimination (first-liver-pass excretion; about 55% of dose). This high and unexpected pre-systemic elimination leads to an accumulation of substantial amounts in the bile fluid from which they are secreted into the duodenum when gastric signaling occurs with food intake. The 8-prenylnaringenin is then absorbed again and enters systemic circulation. Data were taken from the clinical Phase Ia study and represent two volunteers in the lowest dose group (50 mg 8-prenylnaringenin).
Taking the total area under the curve as a measure of 8-prenylnaringenin systemic availability, the percentage of the area under the second peak (generated by reabsorption of the pre-systemically eliminated and then biliary secreted amounts) can be used to estimate those portions of the doses that undergo pre-systemic elimination after oral dosing. The average figure was 54±20% for the six women in the study.
Re-increases in drug serum levels show reabsorption of dose parts collected in the bile fluid and subsequently secreted triggered by intake of the midday meal.
8-prenylnaringenin is analyzed by a specifically developed radio-immunoassay. A 4′-O hapten ({4-[5,7-Dihydroxy-8-(3-methyl-but-2-enyl)-4-oxo-chroman-2-yl]-phenoxy}-acetic acid) was synthesized starting from racemic naringenin and coupled to cationized bovine serum albumin (cBSA). This antigen was mixed with Freund's adjuvants and injected into rabbits. The antiserum resulting after several boosters was isolated as an IgG fraction and used in a final dilution of 1:100.000. A tritiated tracer was synthesized by preparation of the 3′,5′-dibromo derivative of 8-prenylnaringenin, again starting from racemic naringenin. Both bromine atoms were exchanged to ^3H in a final, palladium-catalyzed step leading to the tritiated tracer of a specific radioactivity of 2.22 GBq/mg.
Biological matrices, i.e. blood plasma, blood serum, or urine, are either directly extracted with tert-butyl methyl ether (tert-BME) or after enzymatic de-conjugation by means of glucuronidase/arylsulfatase (Helix pomatia). Organic layers are separated, evaporated and the residues taken up in assay buffer. Extract residues or dilutions of standard 8-prenylnaringenin solutions are then mixed with antiserum and tracer and kept at 4° C. overnight. Dextran-coated charcoal is added to separate bound and free 8-prenylnaringenin and bound radioactivity is quantified with a liquid scintillation counter after addition of a scintillation cocktail.

[2] = pH-dependent solubility of 8-prenylnaringenin; type: physicochemical; settings: dependence on pH
Source text: The solid oral modified release formulations of this invention show a pH-independent drug release in vitro. This is important as the pH varies considerably in the gastro-intestinal tract and continuous release should be achieved independent of the pH. However, the solubility of 8-prenylnaringenin is pH-dependent. […] The low acid solubility property of 8-prenylnaringenin results in vitro in slow drug dissolution at pH 1, whereas the dissolution is fast at higher pH-values such as pH 6.8. The resulting dissolution profiles are different at different pH-values. This problem is solved by the solid oral modified release formulation of this invention.

[3] = In vitro release/dissolution from mini-matrix tablets, basket apparatus USP XXV; type: physicochemical
Procedure: Measurement of the active ingredient release from mini-matrix tablets is carried out according to a one-compartment method (basket apparatus), as described in U.S. Pharmacopeia USP XXV. The release of 8-prenylnaringenin was examined in phosphate buffer solution, pH 6.8 (composition, see USP XXV) or in 0.1 N HCl. Ten percent (w/w) hydroxypropyl-β-cyclodextrine were added in order to achieve sink conditions and primarily control the drug release by the dosage form.

[4] = test system: uterus; settings: compared with estradiol at equivalent bone protective doses; cited from earlier work

- percentage of the area under the second peak of total area under the curve (portion of dose undergoing pre-systemic elimination) ([1]; average for the six women in the study, after oral dosing): 54±20%
- degree of metabolization ([1]; oral dosing, human): less than 60 % of dose
- oral absorption ([1]; oral dosing, human): complete
- pre-systemic elimination (first-liver-pass excretion) ([1]; oral dosing, human): about 55 % of dose
- solubility [2]: pH-dependent
- drug dissolution in vitro ([3]; higher pH-values such as pH 6.8): fast
- drug dissolution in vitro ([3]; pH 1): slow
SMILES: CC(C)=CCc1c(O)cc(O)c2c1OC(c1ccc(O)cc1)CC2=O (centres unmarked) [8-prenylnaringenin, 5,7-Dihydroxy-2-(4-hydroxyphenyl)-8-(3-methylbut-2-enyl)-chroman-4-on]
- activity on the uterus [4]: much lower activity on the uterus than estradiol
